Experimental data taken from patent publication US9809623B2, “α4β7 peptide monomer and dimer antagonists” (Protagonist Therapeutics, Inc., priority 2014, dated 2017).
Numbered stars: 1 amine (or outer) side, 2 acyl side, 3 side chain; on linkers, the order of the positions; unused ones are H or OH. Bridge positions count the residues as written; N and C are the ends. Square brackets hold non-standard residues; d marks the D form. Peptide text beside a SMILES is read from it. I, II: the chains in the order shown. Phe(4-tBu) = CC(C)(C)c1ccc(C[C@H](N)C(=O)O)cc1; Diglycolyl = O=C(COCC(=O)[*:2])[*:1]; NMeR = CN[C@@H](CCCNC(=N)N)C(=O)O; β3hE = N[C@@H](CCC(=O)O)CC(=O)O; Pen = CC(C)(S)[C@H](N)C(=O)O

Legend:
Plasma Stability Assay = format: in vitro ADME; conditions: rat, Table 4-C, t1/2
Procedure, shortened: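 Rat plasma at 37° C with gentle shaking, peptide added from 10 mM stock; samples taken at 0, 10, 30, 45, 60, 120 and 180 min and quenched 1:4 with acetonitrile/0.1% formic acid. After centrifugation, supernatants were mixed with internal standard peptide (1 ug/mL) and analysed by LC-MS.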

[1] = Dithiothreitol (DTT) Redox Stability Assay; format: physicochemical; conditions: Table 4-C, t1/2, 0.5 mM DTT
Procedure, shortened: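 Peptide at 50 μM final in 100 mM Tris-Cl pH 7.5 was exposed to 0.5 mM DTT at room temperature. Aliquots taken at 20, 40, 80 and 120 min were quenched with acetic acid and analysed by reverse-phase HPLC at 220 nm for remaining oxidized parent. Half-lives were obtained by first-order exponential decay fit.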

Intestinal Wash Assay = format: in vitro ADME; set-up: dose or concentration left out as unconfirmed; conditions: rat, rat intestinal wash fluid (small intestine); Table 4-C, t1/2
Procedure: Intestinal wash assay solution was prepared from rats fasted for at least 6 hours prior. The animals were euthanized and a midline incision was made from the point of the jaw to the pubis. The abdomen and chest were opened by making 2 incisions through the anterior chest wall on either side. Hemostats were used to clamp off both ends of the animal's stomach—where the esophagus meets the stomach and where the stomach meets the duodenum. A hemostat was also used to clamp 2-3 cm down the intestine from where the stomach meets the duodenum.
Intestinal wash assay solution was prepared by separating 20 cm of the small intestine from the body. Once separated 20 cm, the end was clamped with a hemostat and the section cut from the body, leaving the hemostats in place on the removed section. 1 mL of chilled saline was drawn up with a 1 mL syringe. One end of the intestine was held up and the clamp removed. Approximately 2-2.5 cm of the gavage needle was inserted into the intestine, and the saline was slowly injected. The fluid was massaged down the length of the intestine using gloved fingers. The gavage needle was removed and the clamp was replaced on the end of the intestine. The intestine was sat straight and a q-tip was run firmly up and down the length of the outside of the intestine approximately 3-6 times to mix the enzymes with the saline. One end of the intestine was held up and some of the fluid was carefully moved at the top down. The clamp was removed and that end of the intestine was set into a small weigh boat on ice. The other end of the intestine was carefully picked up and held vertically. Gloved fingers were gently run down it to squeeze the fluid into the container. The previous steps saline injection and fluid procurement steps were repeated twice using only 0.5 mL of chilled saline. The sample was pipetted from the weigh boat into a centrifuge tube and placed on ice. All intestinal wash samples were spun down in a cold centrifuge at 12,000×g for 10 minutes. The supernatant from the top of each centrifuged sample was pipetted into cryotubes, and kept on ice until use.
Intestinal wash assays were performed using intestinal wash assay solution prepared as described above. A sufficient amount of rat intestinal wash was thawed. For each sample, 200 uL of rat intestinal wash fluid was pipetted into 1.5 mL Eppendorf tubes (number of tubes for experiment=number of test peptides×N). The tubes were pre-incubated for about 10 minutes in a water bath at 37° C.
Peptide working solutions ([…]) were prepared by combining 2 μl of 10 mM DMSO stock with 128 μl 100 mM Tris pH 7.5.
Peptide quench solvent (50% ACN-50% MeOH-5% Formic Acid)+IS (5 ug/ml; 1 ul of 10 mg/mL IS per 2 mL quench solvent) was prepare and a quench plate prepared and placed on ice. 200 ul of quench solution was added to each well of the quench plate for T=0, 10, 20, 30, 60 and 180 min collection.
For each test sample and a positive control, 30 ul of peptide working solution was added to a tube of intestinal wash fluid. The tube was gently vortexed and 30 ul was immediately removed and quenched in T=0 well of quench plate (pipetted directly into the quench solution). This well was covered tightly to prevent evaporation. 30 ul aliquots were removed at T=10 min, T=20 min, T=30 min, T=60 min, and T=180 min, and quenched. When all time points were collected, the quench plate was centrifuged at 10,000 rpm for 10 minutes. 150 uL of each supernatant was transferred to a polypropylene 96-well collection plate. 300 ul Mobile Phase A was added to each collection, and LC/MS/MS analysis was performed to determine the amount or concentration of peptide remaining in each test sample and positive control.

[2] = Cysteine/Cystine Redox Stability Assay; format: physicochemical; conditions: Table 4-C; ORP where half of the oxidized peptide remains
Procedure: Peptides were diluted to 90 μM by adding 4.545 μl of a 10 mM peptide DMSO stock to 495.45 μl of 100 mM Tris-Cl, pH 7.5. Aliquots of […] were transferred to 8 wells down a column of a 96 well plate. 20 μl of 2.5 mM Cystine in 100 mM Tris-Cl, pH 7.5 was added to each well. Cysteine stock solutions in 100 mM Tris-Cl, pH 7.5 were prepared fresh at the following concentrations: 400 mM, 200 mM, 80 mM, 44 mM, 22 mM, 11 mM, 5.5 mM and blank. At time 0, 25 μl of each cysteine stock solution was added to the 55 μl of cystine/peptide solution, and the mixture was incubated at room temperature for 40 min. The samples were quenched by adding 20 μl of 5M acetic acid and analyzed by reverse phase HPLC. The fraction of oxidized peptide was calculated and plotted against the calculated oxidation reduction potential (ORP) as defined by the Nernst equation. The ORP where half of the oxidized peptide remains is shown below.

SMILES: CC(=O)N[C@H]1CSSC(C)(C)[C@@H](C(=O)N[C@@H](Cc2c[nH]c3ccccc23)C(=O)N[C@H](CCCCNC(=O)COCC(=O)NCCCC[C@@H](NC(=O)[C@H](Cc2c[nH]c3ccccc23)NC(=O)[C@H]2NC(=O)[C@H](CC(C)C)NC(=O)[C@H]([C@@H](C)O)NC(=O)[C@H](CC(=O)O)NC(=O)[C@H](CO)NC(=O)[C@H](CCCNC(=N)N)N(C)C(=O)[C@@H](NC(C)=O)CSSC2(C)C)C(N)=O)C(N)=O)NC(=O)[C@H](CC(C)C)NC(=O)[C@H]([C@@H](C)O)NC(=O)[C@H](CC(=O)O)NC(=O)[C@H](CO)NC(=O)[C@H](CCCNC(=N)N)N(C)C1=O [compound 204, (Ac-C-N-Me-R-S-D-T-L-Pen-W-k-NH2)2-DIG] (I: Ac-C[NMeR]SDTL[Pen]W[dK]-NH2 / II: Ac-C[NMeR]SDTL[Pen]W[dK]-NH2; disulfide I:1-I:7, II:1-II:7 (inferred); linker I:9-II:9 via Diglycolyl (inferred))
- half-life at 20 μM (Plasma Stability Assay): > 6 h
- DTT Min [1]: 27 min
- half-life (Intestinal Wash Assay): > 3 h
- Cys/CySS (mV) [2]: −204 mV

SMILES: CC(=O)N[C@@H]1C(=O)N(C)[C@@H](CCCNC(=N)N)C(=O)N[C@@H](CO)C(=O)N[C@@H](CC(=O)O)C(=O)N[C@@H]([C@@H](C)O)C(=O)N[C@@H](CC(C)C)C(=O)N[C@H](C(=O)N[C@@H](Cc2c[nH]c3ccccc23)C(=O)N[C@H](CCCCNC(=O)COCC(=O)NCCCC[C@@H](NC(=O)[C@H](Cc2c[nH]c3ccccc23)NC(=O)[C@H]2NC(=O)[C@H](CC(C)C)NC(=O)[C@H]([C@@H](C)O)NC(=O)[C@H](CC(=O)O)NC(=O)[C@H](CO)NC(=O)[C@H](CCCNC(=N)N)N(C)C(=O)[C@@H](NC(C)=O)C(C)(C)SSC2(C)C)C(N)=O)C(N)=O)C(C)(C)SSC1(C)C [compound 209, (Ac-Pen-N-Me-R-S-D-T-L-Pen-W-k-NH2)2-DIG] (I: Ac-[Pen][NMeR]SDTL[Pen]W[dK]-NH2 / II: Ac-[Pen][NMeR]SDTL[Pen]W[dK]-NH2; disulfide I:1-I:7, II:1-II:7 (inferred); linker I:9-II:9 via Diglycolyl (inferred))
- half-life at 20 μM (Plasma Stability Assay): > 3 h
- DTT Min [1]: >120 min
- half-life (Intestinal Wash Assay): > 3 h
- Cys/CySS (mV) [2]: <−300 mV

SMILES: CC(=O)N[C@@H]1C(=O)N(C)[C@@H](CCCNC(=N)N)C(=O)N[C@@H](CO)C(=O)N[C@@H](CC(=O)O)C(=O)N[C@@H]([C@@H](C)O)C(=O)N[C@@H](CC(C)C)C(=O)N[C@H](C(=O)N[C@@H](Cc2c[nH]c3ccccc23)C(=O)N[C@@H](CCC(=O)O)C(=O)N[C@H](CCCCNC(=O)COCC(=O)NCCCC[C@@H](NC(=O)[C@H](CCC(=O)O)NC(=O)[C@H](Cc2c[nH]c3ccccc23)NC(=O)[C@H]2NC(=O)[C@H](CC(C)C)NC(=O)[C@H]([C@@H](C)O)NC(=O)[C@H](CC(=O)O)NC(=O)[C@H](CO)NC(=O)[C@H](CCCNC(=N)N)N(C)C(=O)[C@@H](NC(C)=O)C(C)(C)SSC2(C)C)C(N)=O)C(N)=O)C(C)(C)SSC1(C)C [compound 217, (Ac-Pen-N-Me-R-S-D-T-L-Pen-W-E-k-NH2)2-DIG] (I: Ac-[Pen][NMeR]SDTL[Pen]WE[dK]-NH2 / II: Ac-[Pen][NMeR]SDTL[Pen]WE[dK]-NH2; disulfide I:1-I:7, II:1-II:7 (inferred); linker I:10-II:10 via Diglycolyl (inferred))
- half-life at 20 μM (Plasma Stability Assay): > 2 h
- DTT Min [1]: >120 min
- half-life (Intestinal Wash Assay): > 3 h
- Cys/CySS (mV) [2]: <−300 mV

SMILES: CC(=O)N[C@@H]1C(=O)N(C)[C@@H](CCCNC(=N)N)C(=O)N[C@@H](CO)C(=O)N[C@@H](CC(=O)O)C(=O)N[C@@H]([C@@H](C)O)C(=O)N[C@@H](CC(C)C)C(=O)N[C@H](C(=O)N[C@@H](Cc2ccc(C(C)(C)C)cc2)C(=O)N[C@@H](CCC(=O)O)CC(=O)N[C@H](CCCCNC(=O)COCC(=O)NCCCC[C@@H](NC(=O)C[C@H](CCC(=O)O)NC(=O)[C@H](Cc2ccc(C(C)(C)C)cc2)NC(=O)[C@H]2NC(=O)[C@H](CC(C)C)NC(=O)[C@H]([C@@H](C)O)NC(=O)[C@H](CC(=O)O)NC(=O)[C@H](CO)NC(=O)[C@H](CCCNC(=N)N)N(C)C(=O)[C@@H](NC(C)=O)C(C)(C)SSC2(C)C)C(N)=O)C(N)=O)C(C)(C)SSC1(C)C [compound 218, [Ac-Pen-(N-Me-Arg)-Ser-Asp-Thr-Leu-Pen-Phe(4-tBu)-(β-homoGlu)-(D-Lys)-NH2]2-DIG] (I: Ac-[Pen][NMeR]SDTL[Pen][Phe(4-tBu)][β3hE][dK]-NH2 / II: Ac-[Pen][NMeR]SDTL[Pen][Phe(4-tBu)][β3hE][dK]-NH2; disulfide I:1-I:7, II:1-II:7; linker I:10-II:10 via Diglycolyl)
- half-life at 20 μM (Plasma Stability Assay): > 6 h
- DTT Min [1]: >120 min
- half-life (Intestinal Wash Assay): > 6 h
- Cys/CySS (mV) [2]: <−300 mV
